Here are results for 1 compound from patent US8088819B2, “Derivatives of substituted 3-phenyl-1-(phenylthienyl)propan-1-ones and of 3-phenyl-1-(phenylfuranyl) propan-1-ones, preparation and use” (priority 2006, dated 2012).

For one data set, the target named is T1, hPPARalpha (Homo sapiens, UniProt Q07869).
T1 construct: expressed in transfected cells; host or cells: COS-7 (monkey kidney fibroblasts)
T1 sequence (Q07869 239-466 limits assumed): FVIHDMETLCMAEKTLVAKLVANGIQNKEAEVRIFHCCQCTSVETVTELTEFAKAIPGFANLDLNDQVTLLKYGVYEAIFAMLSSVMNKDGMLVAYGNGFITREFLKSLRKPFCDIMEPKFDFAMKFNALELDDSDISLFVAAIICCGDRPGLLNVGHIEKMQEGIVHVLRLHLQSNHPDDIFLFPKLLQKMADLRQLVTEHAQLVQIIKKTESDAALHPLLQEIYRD
Briefly: PPAR activation: Gal4-hPPARα chimera luciferase transactivation in COS-7 cells, Method 2. In kind it is cell-based. Conditions: COS-7, 24 h. An outline of the steps:
(§1)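 COS-7 cells were transfected with Gal4-PPAR LBD chimera plus Gal4(RE)_TkpGL3 luciferase reporter (1/10) and seeded serum-free for 4 h. Compounds at 10^−5 to 100 μm were applied for 24 h at 37° C in 1% lipid-free synthetic serum. Luciferase was read after lysis, and EC50 derived.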

The subject of data set [1] is target genes of PPARδ in murine myocytes (C2C12). Kind of data set: Expression of target genes of PPARδ (PDK4, CPT1b, UCP2, UCP3) in murine myocytes, quantitative RT-PCR. Type of data set: cell-based. The conditions noted are these: murine myocytes in vitro. From the text:
It is established that regulation of the expression of these genes is directly controlled by PPARδ in this cell type. The more the expression of the genes is increased, the greater the stimulating action of the compound according to the invention on metabolism in the muscle cells.
Cells from the murine cell line C2C12 (obtained from ECACC) are cultivated in DMEM medium (Gibco; 41965-039) with addition of 1% L-glutamine (Gibco; 25030), 1% of penicillin/streptomycin (VWR; BWSTL0022/100) and 10% decomplemented fetal calf serum (FCS. Gibco; 10270-106).
The cells are seeded on 24-well plates at a density of 50·10^3 cells/well. At confluence, the medium is replaced with a differentiating medium (basal medium with addition of 2% of horse serum (Gibco; 26050-088)), then incubated at 37° C. and 5% CO2 for 4 days in order to differentiate them to myocytes.
After 5 days of differentiation, the cells are put in a deprivation medium (basal medium without serum) for 6 hours. The cells are then treated with the compounds according to the invention in the deprivation medium. Compounds 2, 4, 7, 11, 39, 40, 46, 49 and 72 were in dose effect, corresponding to 1×, 10× and 100× their EC50 PPARδ. The compounds according to the invention were dissolved in dimethylsulfoxide (DMSO, Sigma; D5879). The cells were treated for 24 h at 37° C., 5% CO2. The effect of the compounds according to the invention was compared with the effect of DMSO alone.
After treatment, the total RNA is extracted from the cells using the NucleoSpine® 96 RNA kit (Macherey Nagel, Hoerdt, France) following the manufacturer's instructions.
1 μg of total RNA (quantified based on the UV spectrophotometer reading) was then reverse-transcribed to complementary DNA by reaction for 1 hour at 37° C. in a total volume of 30 μl containing buffer 1× (Invitrogen), 1.5 mM of DTT, 0.18 mM of dNTPs (Promega), 200 ng of pdN6 (Amersham), 30 U of RNase inhibitor (Promega) and 1 μl of MMLV-RT (Invitrogen).
The quantitative PCR experiments were carried out using the MyiQ Single-Color Real-Time PCR Detection System (Biorad, Marnes-la-Coquette, France) and were performed using the iQ SYBR Green Supermix kit following the supplier's recommendations, in 96-well plates, on 5 μl of diluted reverse-transcription reaction mixtures with a hybridization temperature of 60° C. Primer pairs specific to the PDK4, CPT1b, UCP2 and UCP3 genes under investigation were used:
The amount of fluorescence emitted is directly proportional to the amount of complementary DNA present at the start of the reaction and amplified during PCR. For each target investigated, a range is produced by successive dilutions of a pool constituted of a few microliters of various reverse-transcription reaction mixtures. The relative expression levels of each target are thus determined using the efficacy curves obtained with the points in the range.
The levels of expression of the genes of interest were then normalized relative to the level of expression of the reference gene 36B4 (whose specific primers are: sense primer: 5′-[…]-3′ (SEQ ID No. 19) and antisense primer: 5′-[…]-3′ (SEQ ID No. 20)). The induction factor, i.e. the ratio of the relative signal (induced by the compound according to the invention) to the mean of the relative values of the control group, was then calculated. The higher this factor, the greater the activating character of the compounds according to the invention with respect to gene expression. The final result is represented as the mean of the induction values in each experimental group.

The target in a further data set is T2, hPPARgamma (Homo sapiens, UniProt P37231).
T2 construct: expressed in transfected cells; host or cells: COS-7 (monkey kidney fibroblasts)
T2 sequence (P37231 238-503 limits assumed): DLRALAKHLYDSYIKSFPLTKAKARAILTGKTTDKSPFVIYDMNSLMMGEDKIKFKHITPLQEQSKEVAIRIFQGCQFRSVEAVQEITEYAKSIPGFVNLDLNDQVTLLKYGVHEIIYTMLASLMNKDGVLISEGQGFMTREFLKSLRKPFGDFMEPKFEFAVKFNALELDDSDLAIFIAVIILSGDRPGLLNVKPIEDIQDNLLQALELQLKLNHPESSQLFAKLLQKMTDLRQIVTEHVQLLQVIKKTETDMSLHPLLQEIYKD
Briefly: PPAR activation: Gal4-hPPARγ chimera luciferase transactivation in COS-7 cells, Method 2. In kind it is cell-based. The conditions noted are these: COS-7, 24 h, Method 2. Summed up: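 Transactivation by a Gal4 DNA-binding domain–hPPARγ ligand-binding domain chimera with a Gal4(RE)-luciferase reporter, transfected into COS-7 cells (plasmid ratio 1/10).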

The target of a further data set is T3, hPPARdelta (Homo sapiens, UniProt Q03181).
T3 construct: expressed in transfected cells; host or cells: COS-7 (monkey kidney fibroblasts)
T3 sequence (Q03181 211-439 limits assumed): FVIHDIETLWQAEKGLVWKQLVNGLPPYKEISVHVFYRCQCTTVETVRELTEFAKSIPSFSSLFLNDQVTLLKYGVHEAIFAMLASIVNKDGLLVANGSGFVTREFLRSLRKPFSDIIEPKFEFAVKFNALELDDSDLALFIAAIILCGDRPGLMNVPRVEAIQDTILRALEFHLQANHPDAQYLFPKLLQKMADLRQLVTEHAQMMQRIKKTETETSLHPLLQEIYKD
Kind of data set: PPAR activation: Gal4-hPPARδ chimera luciferase transactivation in COS-7 cells, Method 2. Type of data set: cell-based. The conditions noted are these: COS-7, 24 h. An outline of the steps: as §1

In general, EC50 refers to the concentration needed to bring the measured effect to its halfway point. As usually defined, the melting point is the temperature of the solid-liquid transition. In turn, `COC(CCc1ccc(OC(C)(C)C(=O)O)c(Cl)c1Cl)c1ccc(-c2ccc(C(F)(F)F)cc2)s1` (centres unmarked) [Compound 40, 2-(2,3-dichloro-4-(3-methoxy-3-(5-(4-(trifluoromethyl)phenyl)-thien-2-yl)propyl)phenoxy)-2-methylpropanoic acid] had a melting point of 46 to 48 °C. Moreover, the EC50 at hPPARalpha (1% Ultroser) was determined as 590 nM. Further, the Emax on hPPARalpha (maximum percentage response relative to the reference phenofibric acid, read-out: hPPARalpha % max) was 35%. Besides, the “expression of genes involved in carbohydrate and lipid metabolism and in thermoregulation” value in data set [1] was “stimulating effects”. Also, the Emax on hPPARgamma (maximum percentage response relative to the reference rosiglitazone, read-out: hPPARgamma % max) amounted to 32%. Also, the EC50 on hPPARgamma (1% Ultroser, read-out: hPPARgamma EC50) was determined as 990 nM. In addition, on hPPARdelta (1% Ultroser), the EC50 was determined as 5 nM. Further, the Emax at hPPARdelta (maximum percentage response relative to the reference GW501516, read-out: hPPARdelta % max) was found to be 78.3%.
